From patent US20180071317A1, “USE OF AGENTS THAT ALTER THE PERITUMORAL ENVIRONMENT FOR THE TREATMENT OF CANCER” (SERVICIO ANDALUZ DE SALUD, priority 2011, published 2018)

How the values were obtained:
[1] = test system: fibroblasts (PHF) co-cultured with tumor cells, ovarian carcinoma (EFO-27); assay: Marker expression (IHC) in PHF co-cultured with EFO-27 tumor cells; type: cell-based, human; settings: co-culture with EFO-27; SP 1 μM + antagonist 1 μM; 48 h;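 further: values are the percentage of PHF fibroblasts positive for each marker, cultured in fresh plasma from a healthy human donor, each experiment run in six replicates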
Experimental: (§1) All cultures were maintained 48 hours, following which the same cells were included in paraffin blocks for subsequent analysis of the expression of different markers by immunohistochemistry (see Example 1). […] All experiments were carried out sixfold. Analyzed markers in fibroblast cells (stromal cells) were: TGF-α, TGF-β1, TGF-β2, TGF-β3, SPARC, MMP-3, MMP-7, MMP-9, MMP-11, MMP-13 and MMP-14.

[2] = test system: fibroblasts of tumors produced by human glioma tumor line (GAMG); assay: Marker expression (IHC) in fibroblasts of tumor or peritumoral area, mouse model, GAMG; type: in vivo; settings: GAMG tumors in mice, 30 mg/kg/day oral, 7 days
Experimental: In vitro tests conducted in Example 5 are now carried out in an experimental model in mice in vivo. […] Subsequently, the expression in fibroblasts tumoral and peritumoral area of molecular markers associated with progression and maintenance of tumors: TGF-α, TGF-β1, TGF-β2, TGF-β3, MMP-7, MMP-11, MMP-14 were analyzed by immunohistochemistry.
Were injected with 2×10^7 cells tumors (corresponding, in each case to each of the tumor types as specified in Table 9) in 200 of PBS subcutaneously μl. […] Mice were randomized into two groups when the tumors reached a volume of 75 mm^3 One group was treated with non-peptide receptor antagonists NK1 and the other with placebo 200μ1. […] Tumors and samples of non-neoplastic stromal areas remote from the tumor were halved, formalin fixed (4%) and then were included in paraffin blocks for analysis by immunohistochemistry.
The expression on fibroblast cells obtained in the animal model was analyzed by immunohistochemistry, of the above markers: TGF-α, TGF-β1, TGF-β2, TGF-β3, MMP-7, MMP-1 1, MMP-14MP-14. Tables 32 to 35 depict the type of label used and the average percentage of fibroblasts present in non-tumor areas, tumor and peritumoral (±SD) which were expressing the marker shown in each of the tumor types developed from of the different cell lines used. This process was realized in mice treated with non-peptide antagonists of NK1 receptor and in untreated animals (control).

[3] = test system: fibroblasts (PHF) co-cultured with tumor cells of human breast carcinoma (MCF-7); assay: Marker expression (IHC) in PHF co-cultured with MCF-7 tumor cells; type: cell-based; settings: co-culture with MCF-7; SP 1 μM + antagonist 1 μM; 48 h;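 further: value is the percentage of fibroblasts positive for each marker, with fibroblasts cultured alone as reference, grown in fresh plasma from a healthy donor, six replicates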
Experimental: as §1

[4] = test system: human primary fibroblasts (PHF); assay: Marker expression (immunohistochemistry) in human primary fibroblasts with SP alone or with NK1 antagonists; type: cell-based; settings: SP 1 μM + antagonist 1 μM; 48 h;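 further: primary human dermal fibroblasts, immunostained with rabbit polyclonal antibodies against each marker, value is percentage of stained cells among all cells counted in 20 fields at 400× per section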
Experimental: These PHF were obtained and purified from samples obtained from the dermis of the skin of healthy volunteers as described in De Bari et al (De Bari et al. 2001). Briefly, small pieces of skin dermis were digested in a solution of hyaluronidase (Sigma-Aldrich, USA) at a concentration of 1 mg/ml for 15 minutes at 37° C. and then treated with 6 mg/ml collagenase type IV (Invitrogen) for 2 hours at 37° C. Then, the cells were washed, resuspended in DMEM culture medium with high glucose (Dulbecco's Modified Eagle's Medium, Invitrogen) supplemented with 1% antibiotic-antimycotic (Invitrogen) and 1% pyruvate Sodium (Invitrogen), and seeded in culture dishes at a concentration of 10,000 cells per square centimeter. When the cells reached confluence, adherent cells were detached using 0.5% sterile trypsin (Invitrogen) and used between passages 3 and 9. For tests shown below, the PHF were plated in 24-well plates at a concentration of 25,000 cells per well.
After 48 hours of culture, cells were harvested and paraffin cell-blocks for immunohistochemical analysis were constructed, as previously explained in Example 1.
In immunohistochemical assays the expression of the following markers were studied: TGFα (SAB4502953), TGF1 (SAB4502954), TGFβ2 (SAB4502956), TGFβ3 (SAB4502957), SPARC (HPA002989), MMP-3 (HPA007875) MMP-7 (SAB4501894), MMP-9 (SAB4501896), MMP-11 (SAB4501898), MMP-13 (SAB4501900) and MMP-14 (SAB4501901) using specific antibodies against them. All antibodies used were rabbit polyclonal antibodies obtained from Sigma-Aldrich and were used at a concentration of 1/1000. All experiments were carried out sixfold.
On each of the six sections cell counts were performed in 20 high power fields (400×) through an Olympus microscope (model CX31) to assess the immunostaining. On each of the fields total cell number and number of cells displaying immunostaining were counted, being then the percentage of cells displaying said immunostaining.

[5] = test system: fibroblasts (PHF) co-cultured with tumor cells of human Burkitt lymphoma (CA-46); assay: Marker expression (IHC) in PHF co-cultured with CA-46 tumor cells; type: cell-based; settings: PHF co-cultured with CA-46 + SP + NK1 antagonist;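 further: percentage of PHF fibroblasts positive for each marker, cultures grown in fresh human plasma from a healthy donor, six replicates, compared with fibroblasts cultured alone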
Experimental: (§2) All cultures were maintained 48 hours, following which the same cells were included in paraffin blocks for subsequent analysis of the expression of different markers by immunohistochemistry (see Example 1). The primary antibodies used to perform immunohistochemical assays and their concentration are detailed in Example 2. All experiments were carried out sixfold. Analyzed markers in fibroblast cells (stromal cells) were: TGF-α, TGF-β1, TGF-β2, TGF-β3, SPARC, MMP-3, MMP-7, MMP-9, MMP-11, MMP-13 and MMP-14.

[6] = test system: fibroblasts (PHF) co-cultivated with tumor cell lymphoblastic leukemia B (SDI); assay: Marker expression (IHC) in PHF co-cultured with SDI tumor cells; type: cell-based, human; settings: PHF co-cultivated with SDI + SP + NK1 antagonist
Experimental: as §1

[7] = test system: fibroblasts (PHF) co-cultured with tumor cells of human gastric adenocarcinoma (23132/87); assay: Marker expression (IHC) in PHF co-cultured with 23132/87 tumor cells; type: cell-based; settings: co-culture with 23132/87; SP 1 μM + antagonist 1 μM; 48 h;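 further: cultures grown in fresh plasma from a healthy human donor, values give the percentage of PHF fibroblasts positive for the marker, each experiment run in six replicates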
Experimental: as §2

[8] = test system: fibroblasts (PHF) co-cultured with tumor cells of human cervix carcinoma (KB); assay: Marker expression (IHC) in PHF co-cultured with KB tumor cells; type: cell-based; settings: co-culture with KB; SP 1 μM + antagonist 1 μM; 48 h;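 further: percentage of PHF fibroblasts showing expression of each marker, cultured in fresh blood plasma from a healthy human donor, six replicates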
Experimental: as §1

[9] = test system: macrophages in co-culture with cells isolated from primary human tumors; assay: Marker expression (IHC) in macrophages co-cultured with primary human tumor cells (colon, breast, ovarian, lung carcinoma, melanoma); type: cell-based; settings: SP 1 μM + antagonist 1 μM;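 further: macrophages came from pleural or peritoneal washings of the patient who also supplied the tumor cells, and both were co-cultured on fresh blood plasma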
Experimental: To check that the interaction of tumor cells obtained directly from primary human immune cell/inflammatory (macrophages) cells, obtained from the patient stimulate secretion of substances by these macrophages recognized as important in survival of both cell types and in the progression of tumor cells, co-cultures were performed on fresh blood plasma, immune cell/inflammatory (macrophages) with tumor cells derived from primary tumors. All obtained from the same patient, to build an experimental model similar to human physiology.
Macrophages were obtained from washing or pleural or peritoneal from the same patient from which the primary tumor cells were obtained in each case.

[10] = co-culture with cells isolated from breast carcinoma
[11] = co-culture with cells isolated from colon carcinoma
[12] = co-culture with cells isolated from lung carcinoma
[13] = co-culture with cells isolated from melanoma
[14] = co-culture with cells isolated from ovarian carcinoma

Cc1cc(F)ccc1[C@H]1CNCCN1C(=O)N(C)[C@H](C)c1cc(C(F)(F)F)cc(C(F)(F)F)c1 [Vestipitant]
0%: PHF cells expressing MMP-3 [1] | PHF cells expressing MMP-7 [1] | PHF cells expressing MMP-9 [1] | PHF cells expressing MMP-11 [1] | PHF cells expressing MMP-13 [1] | PHF cells expressing MMP-14 [1] | PHF cells expressing SPARC [1] | PHF cells expressing TGF-α [1] | PHF cells expressing TGF-β1 [1] | PHF cells expressing TGF-β2 [1] | PHF cells expressing TGF-β3 [1] | fibroblasts expressing MMP-7 [2] | fibroblasts expressing MMP-11 [2] | fibroblasts expressing MMP-14 [2] | fibroblasts expressing TGF-α [2] | fibroblasts expressing TGF-β 1 [2] | fibroblasts expressing TGF-β 2 [2] | fibroblasts expressing TGF-β 3 [2] | PHF cells expressing MMP-3 [3] | PHF cells expressing MMP-7 [3] | PHF cells expressing MMP-9 [3] | PHF cells expressing MMP-11 [3] | PHF cells expressing MMP-13 [3] | PHF cells expressing MMP-14 [3] | PHF cells expressing SPARC [3] | PHF cells expressing TGF-α [3] | PHF cells expressing TGF-β1 [3] | PHF cells expressing TGF-β2 [3] | PHF cells expressing TGF-β3 [3] | PHF cells expressing MMP-3 [4] | PHF cells expressing MMP-7 [4] | PHF cells expressing MMP-9 [4] | PHF cells expressing MMP-11 [4] | PHF cells expressing MMP-13 [4] | PHF cells expressing MMP-14 [4] | PHF cells expressing SPARC [4] | PHF cells expressing TGFα [4] | PHF cells expressing TGFβ 1 [4] | PHF cells expressing TGFβ 2 [4] | PHF cells expressing TGFβ 3 [4] | cells expressing MMP-3 [5] | cells expressing MMP-7 [5] | cells expressing MMP-9 [5] | cells expressing MMP-11 [5] | cells expressing MMP-13 [5] | cells expressing MMP-14 [5] | cells expressing SPARC [5] | cells expressing TGF-α [5] | cells expressing TGF-β1 [5] | cells expressing TGF-β2 [5] | cells expressing TGF-β3 [5] | cells expressing MMP-3 [6] | cells expressing MMP-7 [6] | cells expressing MMP-9 [6] | cells expressing MMP-11 [6] | cells expressing MMP-13 [6] | cells expressing MMP-14 [6] | cells expressing SPARC [6] | cells expressing TGF-α [6] | cells expressing TGF-β1 [6] | cells expressing TGF-β2 [6] | cells expressing TGF-β3 [6] | PHF cells expressing MMP-3 [7] | PHF cells expressing MMP-7 [7] | PHF cells expressing MMP-9 [7] | PHF cells expressing MMP-11 [7] | PHF cells expressing MMP-13 [7] | PHF cells expressing MMP-14 [7] | PHF cells expressing SPARC [7] | PHF cells expressing TGF-α [7] | PHF cells expressing TGF-β1 [7] | PHF cells expressing TGF-β2 [7] | PHF cells expressing TGF-β3 [7] | PHF cells expressing MMP-3 [8] | PHF cells expressing MMP-7 [8] | PHF cells expressing MMP-9 [8] | PHF cells expressing MMP-11 [8] | PHF cells expressing MMP-13 [8] | PHF cells expressing MMP-14 [8] | PHF cells expressing SPARC [8] | PHF cells expressing TGF-α [8] | PHF cells expressing TGF-β1 [8] | PHF cells expressing TGF-β2 [8] | PHF cells expressing TGF-β3 [8] | Percentage of macrophages which expressed EGF [9, 10] | Percentage of macrophages which expressed MMP-9 [9, 10] | Percentage of macrophages which expressed VEGF [9, 10] | Percentage of macrophages which expressed EGF [9, 11] | Percentage of macrophages which expressed MMP-9 [9, 11] | Percentage of macrophages which expressed VEGF [9, 11] | Percentage of macrophages which expressed EGF [9, 12] | Percentage of macrophages which expressed MMP-9 [9, 12] | Percentage of macrophages which expressed VEGF [9, 12] | Percentage of macrophages which expressed EGF [9, 13] | Percentage of macrophages which expressed MMP-9 [9, 13] | Percentage of macrophages which expressed VEGF [9, 13] | Percentage of macrophages which expressed EGF [9, 14] | Percentage of macrophages which expressed MMP-9 [9, 14] | Percentage of macrophages which expressed VEGF [9, 14]

C[C@@H](O[C@H]1OCCN(Cc2n[nH]c(=O)[nH]2)[C@H]1c1ccc(F)cc1)c1cc(C(F)(F)F)cc(C(F)(F)F)c1 [Aprepitant]
0%: PHF cells expressing MMP-3 [1] | PHF cells expressing MMP-7 [1] | PHF cells expressing MMP-9 [1] | PHF cells expressing MMP-11 [1] | PHF cells expressing MMP-13 [1] | PHF cells expressing MMP-14 [1] | PHF cells expressing SPARC [1] | PHF cells expressing TGF-α [1] | PHF cells expressing TGF-β1 [1] | PHF cells expressing TGF-β2 [1] | PHF cells expressing TGF-β3 [1] | fibroblasts expressing MMP-7 [2] | fibroblasts expressing MMP-11 [2] | fibroblasts expressing MMP-14 [2] | fibroblasts expressing TGF-α [2] | fibroblasts expressing TGF-β 1 [2] | fibroblasts expressing TGF-β 2 [2] | fibroblasts expressing TGF-β 3 [2] | PHF cells expressing MMP-3 [3] | PHF cells expressing MMP-7 [3] | PHF cells expressing MMP-9 [3] | PHF cells expressing MMP-11 [3] | PHF cells expressing MMP-13 [3] | PHF cells expressing MMP-14 [3] | PHF cells expressing SPARC [3] | PHF cells expressing TGF-α [3] | PHF cells expressing TGF-β1 [3] | PHF cells expressing TGF-β2 [3] | PHF cells expressing TGF-β3 [3] | PHF cells expressing MMP-3 [4] | PHF cells expressing MMP-7 [4] | PHF cells expressing MMP-9 [4] | PHF cells expressing MMP-11 [4] | PHF cells expressing MMP-13 [4] | PHF cells expressing MMP-14 [4] | PHF cells expressing SPARC [4] | PHF cells expressing TGFα [4] | PHF cells expressing TGFβ 1 [4] | PHF cells expressing TGFβ 2 [4] | PHF cells expressing TGFβ 3 [4] | cells expressing MMP-3 [5] | cells expressing MMP-7 [5] | cells expressing MMP-9 [5] | cells expressing MMP-11 [5] | cells expressing MMP-13 [5] | cells expressing MMP-14 [5] | cells expressing SPARC [5] | cells expressing TGF-α [5] | cells expressing TGF-β1 [5] | cells expressing TGF-β2 [5] | cells expressing TGF-β3 [5] | cells expressing MMP-3 [6] | cells expressing MMP-7 [6] | cells expressing MMP-9 [6] | cells expressing MMP-11 [6] | cells expressing MMP-13 [6] | cells expressing MMP-14 [6] | cells expressing SPARC [6] | cells expressing TGF-α [6] | cells expressing TGF-β1 [6] | cells expressing TGF-β2 [6] | cells expressing TGF-β3 [6] | PHF cells expressing MMP-3 [7] | PHF cells expressing MMP-7 [7] | PHF cells expressing MMP-9 [7] | PHF cells expressing MMP-11 [7] | PHF cells expressing MMP-13 [7] | PHF cells expressing MMP-14 [7] | PHF cells expressing SPARC [7] | PHF cells expressing TGF-α [7] | PHF cells expressing TGF-β1 [7] | PHF cells expressing TGF-β2 [7] | PHF cells expressing TGF-β3 [7] | PHF cells expressing MMP-3 [8] | PHF cells expressing MMP-7 [8] | PHF cells expressing MMP-9 [8] | PHF cells expressing MMP-11 [8] | PHF cells expressing MMP-13 [8] | PHF cells expressing MMP-14 [8] | PHF cells expressing SPARC [8] | PHF cells expressing TGF-α [8] | PHF cells expressing TGF-β1 [8] | PHF cells expressing TGF-β2 [8] | PHF cells expressing TGF-β3 [8] | Percentage of macrophages which expressed EGF [9, 10] | Percentage of macrophages which expressed MMP-9 [9, 10] | Percentage of macrophages which expressed VEGF [9, 10] | Percentage of macrophages which expressed EGF [9, 11] | Percentage of macrophages which expressed MMP-9 [9, 11] | Percentage of macrophages which expressed VEGF [9, 11] | Percentage of macrophages which expressed EGF [9, 12] | Percentage of macrophages which expressed MMP-9 [9, 12] | Percentage of macrophages which expressed VEGF [9, 12] | Percentage of macrophages which expressed EGF [9, 13] | Percentage of macrophages which expressed MMP-9 [9, 13] | Percentage of macrophages which expressed VEGF [9, 13] | Percentage of macrophages which expressed EGF [9, 14] | Percentage of macrophages which expressed MMP-9 [9, 14] | Percentage of macrophages which expressed VEGF [9, 14]
